In patent US10583115B2, “Modulators of 14-3-3 functionality and uses thereof” (University of South Australia, priority 2014, dated 2020):
“Also recorded” adds a separate entry of the source.

Assays:
sphingosine kinases (SK) = assay: Effect on sphingosine kinase (SK) activity; conditions: data not shown
Jurkat cells [1] = assay: Immunoblotting of signalling and apoptosis markers in Jurkat cells; format: cell-based; conditions: 7.5 μM, time course
Protocol: Jurkat cells were treated at 5×10^5/ml in RPMI with 0.5% FBS as detailed. Cells were harvested by centrifugation at 1500 g for 5 mins and washed with PBS prior to lysis in NP40 lysis buffer (10 mM Tris-HCl pH7.4, 137 mM NaCl, 10% glycerol, 1% NP40, protease inhibitor (Roche), 4 mM NaF, 2 mM Na-vanadate, 10 mM β-glycerophosphate, 1 mM Na-pyrophosphate, 1 mM Na-molybdate) for 30 minutes on ice with vortexing. The lysates were clarified at 13,000 rpm for 15 minutes at 4° C. and protein concentration determined using BCA assay (Pierce). 30-40 μg of lysate were run on to Criterion-XT 4-12% Bis-Tris gels (Bio-Rad), followed by transfer onto nitrocellulose. The filters were blocked for 30 minutes at room temperature in TNT buffer (10 mM Tris-HCl pH8, 150 mM NaCl, 0.05% Tween-20) containing blocking buffer (Roche), prior to incubation with antibodies over night. Antibodies used were from Cell Signalling; Phospho-p38 MAPK(#4571), Phospho-SAPK/JNK(81E11), Phospho-p44/42 MAP kinase (#9101), Phospho-AKT S473 (#9271), p44/42 MAP kinase (#9102), AKT (#9272), BID (#2002), caspase-3 (#9602), PARP (#9542), and Santa Cruz Biotechnology; pan 14-3-3 K19 (sc-629). Following antibody binding, filters were washed in TNT for 1 hr at room temperature, incubated with 1/12,500 anti-rabbit or anti-mouse HRP secondary antibody (Pierce) for 1 hr at room temperature and finally washed for 1 hr with TNT before incubation with Clarity western ECL reagent (Bio-Rad). Filters were exposed on a LAS 4000 imager. Blots were analysed using Multi-gauge/Colony software FUJI FILM).

A549 xenograft = A549 xenograft study; format: in vivo, BALB/c nude mice
Protocol: All experimental procedures involving animals were conducted in accordance with the NHMRC Australian Code for the Care and Use of Animals for Scientific Purposes and with approval by the institutional animal ethics committee. BALB/c nude mice (Nu/Nu, female, 5-6 weeks old) were purchased from the Animal Resources Centre (Perth, Wash.) and maintained under pathogen-free conditions. A549 cells (5×106) in 100 μl PBS were injected subcutaneously into the flanks of the mice and the resulting tumour were measured using digital callipers. The tumour volume was calculated using the following formula: Volume=(larger diameter)×(small diameter)2/2. Once the tumours had reached 100 mm3, mice were divided into groups of 9 and each group administered either RB-012 in saline, FTY720 in saline or saline alone by intraperitoneal injection daily. Initially RB-12 and FTY720 were administered at 2 mg/kg for two days and then the dose was increased to 5 mg/kg for two weeks after which RB-012 was increased to 10 mg/kg but FTY720 maintained at 5 mg/kg. During this dosing regime tumours were monitored twice a week. Differences between samples were analysed using 2 way Anova and statistical significance was accepted at P<0.05.
To assess the effect of RB-012 on human lung cancer growth in vivo, A549 cells were implanted subcutaneously on the flanks of Balb/C nude mice and tumours allowed to develop until they had reached a volume of 100 mm^3. RB-012 or saline was then administered daily to assess the effect on tumour growth. Initially, to reduce the cramping and encourage tolerance, 2 mg/kg RB-012 was administered for two days and then the dose was increased to 5 mg/kg daily for two weeks. Tumour volume was monitored twice a week and after two weeks of treatment mice administered RB-012 had tumours that were 20% smaller than mice receiving saline. […] The tumours on the RB-012 treated mice continued to grow more slowly and after the third week were 30% smaller than those of saline-treated mice (P<0.05). […] Therefore we were unable to increase FTY720 dosing to match RB-012.

Jurkat cells [2] = assay: Jurkat apoptosis assays (TMRE, caspase 3, Annexin V, viability by flow cytometry); format: cell-based
Protocol: (§1) Jurkat cells were routinely set up in apoptosis assays at 2×10^5/ml in RPMI with 0.5% FBS. After treatment, cells were stained either with 200 nM TMRE, 5 μl/ml NucView™ (Biotium), or Annexin V-FITC (Roche) for 15 mins prior to analysis by flow cytometry. Forward- and side-scatter properties were used to exclude debris and a ‘viable’ gate corresponding to the intact, PI negative cell population was used for fluorescence analysis. For A549, cells at 90% confluency were treated with RB compounds for 48 hrs in DMEM with 0.5% FBS. After treatment, cells were released with trypsin and then stained with NucView™ prior to analysis by flow cytometry.

[3] = Toxicity of daily intraperitoneal dosing in mice; format: in vivo, Balb/C nude mice
Protocol: Finally, we studied the effects of RB-012 in vivo. To assess any potential toxic effects, Balb/C nude mice were administered RB-012, delivered in saline, daily by intra-peritoneal injection at 5 mg/kg.

A549 cells [4] = assay: A549 cell viability by MTS assay; format: cell-based, human; conditions: 48 hrs treatment
Protocol: A549 cells (2500/well) were plated in 96 well trays in DMEM with 0.5% FBS and cultured at 37° C. with 5% CO2 overnight. The following day RB compounds were added and cells incubated for a further 48 hours prior to removal of the medium and replacement with MTS reagent diluted 1:6 in Dulbecco's PBS. The cells were incubated at 37° C. for a further 4 hours and the conversion of MTS to the coloured formazan compound determined by measurement of absorbance at 490 nm.

A549 cells [5] = assay: A549 colony assay in soft agar; format: cell-based, human; conditions: 14 days
Protocol: A549 cells (7500) were plated in 0.33% low-melting point agarose in DMEM with 10% FBS with and without RB compounds over a 0.5% low-melting point agarose base. Cells were incubated at 37° C. with 5% CO2 for 14 days and then colonies were photographed and analysed using Image J.

A549 cells [6] = assay: A549 caspase-3 activation (NucView, flow cytometry); format: cell-based, human; conditions: 48 hrs treatment
Protocol: as §1

For `CCCCCCCCc1ccc(CC[N+]2(C)CCCCC2)cc1` [RB-012], the “effect on SK activity” value (sphingosine kinases (SK)) was “does not affect SK activity”, the “time at which BID cleavage is detected” value (Jurkat cells [1]) was 3 h and the “time at which PARP cleavage is detectable” value (Jurkat cells [1]) was 2 h. For the same compound, the “time at which clipping of 14-3-3 protein is detectable” value (Jurkat cells [1]) was 2 h, the “time to commitment to apoptosis” value (Jurkat cells [1]) was 2 to 3 h and the “tolerability at 10 mg/kg” value (A549 xenograft; 10 mg/kg daily i.p.) was “well tolerated without adverse effects”. For the same compound, the “tumours smaller than in mice receiving saline” value (A549 xenograft; after two weeks, 2 mg/kg for two days, then 5 mg/kg daily i.p.) was 20%, the “growth of A549 xenograft, in words” value (A549 xenograft; daily i.p., 2 then 5 then 10 mg/kg) was “retarded” and the “ED50 for apoptosis induction, in words” value (Jurkat cells [2]) was “low micromolar range”. For the same compound, the “Annexin V presentation” value (Jurkat cells [2]; 5 μM, 24 hours) was “Annexin V presentation”, the cell viability (Jurkat cells [2]; 5 μM, 24 hours) was “loss of viability” and the “apoptosis as determined by caspase-3 activation” value (Jurkat cells [2]; 5 μM, within 5 hours) was “readily able to activate apoptosis”. The “time within which cramping after injection subsided” value ([3]; 5 mg/kg daily intra-peritoneal) was 10 to 20 min, the adverse effects ([3]; 5 mg/kg daily intra-peritoneal in saline, 28 days) was “no adverse effects were noted with the exception of minor cramping” and the body weight ([3]; 5 mg/kg daily intra-peritoneal, 28 days) was “unaltered”. For the same compound, the “steady state haemopoiesis (blood and bone marrow samples)” value ([3]; end of treatment period, data not shown) was “no changes were observed”, the “cell viability / growth and survival (MTS), in words” value (A549 cells [4]) was “inhibited” and the IC50 (A549 cells [4]; Homo sapiens, A549) was 5.5 µM. For the same compound, the “colony formation in soft agar” value (A549 cells [5]) was “slightly greater potency” and the caspase-3 activation (A549 cells [6]) was “induce caspase activation; also recorded: greater potency”.
